SMILES strings stand for the structures.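 Grown in 96-well plates, cells were treated for 48 hours with each compound at five concentrations. Insufficient inhibition: endpoint recorded as highest concentration tested. The concentration for 50% growth inhibition is given as GI50.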 Activity calls are given as the source filed them. Rule as the data show it: active = GI50 up to about 1.1 µM and inactive = higher.

Among the test systems are 786-0; A549; CCRF-CEM; COLO 205; EKVX; HOP-62; K562; KM12; Malme-3M; NCI-H460; NCI/ADR-RES; OVCAR-4; OVCAR-8; SF-295; SN12C; T47D; UACC-62; UO-31; IGROV-1.
Test in all cases: DTP human tumour cell line panel, 48 h

Consider `COc1ccc([C@H]2[C@H]3COC(=O)[C@H]3C(C#N)=C3Sc4ccccc4N32)cc1`, for which the GI50 in the test on 786-0 was 36.7 µM (inactive); in the test with A549, 30.5 µM (inactive); with CCRF-CEM, 11.9 µM (inactive); in the test with COLO 205 it was 15.3 µM (inactive); with EKVX, 37.4 µM (inactive); with HOP-62, 39 µM (inactive). For the same compound, the GI50 in the test with K562 was 41.4 µM (inactive); in the test with KM12 it was 27.2 µM (inactive); in the test on Malme-3M, 43 µM (inactive); in the test on NCI-H460 it was 25.4 µM (inactive); in the test with NCI/ADR-RES, 15.5 µM (inactive); in the test on OVCAR-4, 33.7 µM (inactive). In addition, the GI50 is 51.3 µM (inactive) with OVCAR-8; 16.3 µM (inactive) with SF-295; 15.1 µM (inactive) in the test on SN12C; 8.89 µM (inactive) in the test with T47D; 28.8 µM (inactive) with UACC-62; 23.4 µM (inactive) with UO-31.
In the case of `Cc1ccc(C)n2c1nc1cc3ccccc3cc12`, the GI50 is 36.2 µM (inactive) with 786-0; 28.6 µM (inactive) in the test with A549; 33.4 µM (inactive) with CCRF-CEM; 3.52 µM (inactive) in the test with COLO 205; 64.6 µM (inactive) with EKVX; 21 µM (inactive) with HOP-62. The GI50 was 23.1 µM (inactive) with IGROV-1; 47.2 µM (inactive) in the test with K562; 21.1 µM (inactive) in the test with KM12; 50.1 µM (inactive) with Malme-3M; 49.4 µM (inactive) with NCI/ADR-RES; 44.4 µM (inactive) with OVCAR-8. The GI50 is 42.3 µM (inactive) in the test on SF-295; 43 µM (inactive) with SN12C; 11.1 µM (inactive) with T47D; 18.8 µM (inactive) in the test on UACC-62; 14.9 µM (inactive) in the test with UO-31.
`C=C(OC1C(C)=C2C(C1OC(=O)CCCCCCC)C(C)(OC(C)=O)CC(OC(=O)CCC)C1(O)C2OC(=O)C1(C)O)/C(C)=C/C` (stereo unspecified): the concentration for 50% growth inhibition (GI50) with 786-0 was < 0.0001 µM (active); in the test with A549, 0.0125 µM (active); in the test on CCRF-CEM, 0.0141 µM (active); with EKVX, 0.0334 µM (active); in the test on IGROV-1, 0.0125 µM (active); in the test on K562, 0.0125 µM (active). The GI50 in the test on KM12 was 0.0125 µM (active); with Malme-3M, 0.0125 µM (active); with NCI-H460, 0.0125 µM (active); with NCI/ADR-RES it was 0.478 µM (active); in the test on OVCAR-4, 0.0125 µM (active); in the test on OVCAR-8, 0.0125 µM (active). In addition, the GI50 in the test with SF-295 is 0.0125 µM (active); with SN12C, 0.0125 µM (active); with T47D, 0.000135 µM (active); in the test with UACC-62 it was 0.0125 µM (active); in the test on UO-31, 0.115 µM (active).
On to `C#CCNC(Cc1ccccc1)C(=O)O` (stereo unspecified), for which the GI50 in the test with 786-0, in the test on A549, in the test on CCRF-CEM, with COLO 205, with EKVX and in the test on HOP-62 was > 100 µM (inactive) each time. Besides, the GI50 in the test with IGROV-1, in the test with K562, in the test with KM12, in the test on Malme-3M, with NCI-H460 and in the test with NCI/ADR-RES was > 100 µM (inactive) throughout. The GI50 with OVCAR-4, in the test on OVCAR-8, in the test on SF-295, in the test with T47D, with UACC-62 and in the test on UO-31 was > 100 µM (inactive) each time.
Take `CCNC(=S)NNC(=O)C12CC3CC(CC(C3)C1)C2`: the GI50 in the test on 786-0, with A549, in the test on CCRF-CEM, in the test on COLO 205, in the test with HOP-62 and in the test on IGROV-1 was > 100 µM (inactive) in each case. For the same compound, the GI50 in the test with K562, with KM12, in the test with Malme-3M, in the test with NCI-H460, in the test with NCI/ADR-RES and with OVCAR-4 was > 100 µM (inactive) in each case. The GI50 with OVCAR-8, with SF-295, in the test with SN12C, with T47D, in the test with UACC-62 and with UO-31 was > 100 µM (inactive) throughout.
In the case of `COC1C=COC2(C)Oc3c(C)c(O)c4c(O)c(c(C5SCCS5)c(O)c4c3C2=O)NC(=O)C(C)=C/C=C\C(C)C2OC(C)(C)OC(C2C)C(C)C(OC(C)=O)C1C` (stereo unspecified), the GI50 in the test with 786-0 was 10.1 µM (inactive); in the test on A549 it was 3.66 µM (inactive); in the test on CCRF-CEM, 5.86 µM (inactive); with COLO 205 it was 3.38 µM (inactive); in the test with HOP-62 it was 12.2 µM (inactive); in the test on IGROV-1, 6.56 µM (inactive). Also, the GI50 in the test with K562 is 4.09 µM (inactive); with KM12, 6.04 µM (inactive); in the test on Malme-3M, 11.5 µM (inactive); with NCI-H460, 4.21 µM (inactive); with NCI/ADR-RES, 11.6 µM (inactive); in the test with OVCAR-4, 6.07 µM (inactive). The GI50 in the test with OVCAR-8 was 5.15 µM (inactive); in the test on SF-295 it was 5.32 µM (inactive); with SN12C it was 4.3 µM (inactive); with T47D it was 70.6 µM (inactive); with UACC-62, 4.02 µM (inactive); in the test on UO-31 it was 7.41 µM (inactive).
With `CC(=O)O[C@@H]1O[Si](C(C)(C)C)(C(C)(C)C)[C@H](C)[C@H]1C`, the GI50 is 33.5 µM (inactive) in the test with 786-0; 41 µM (inactive) in the test with A549; 40.6 µM (inactive) with CCRF-CEM; > 100 µM (inactive) in the test on COLO 205; 41.7 µM (inactive) with EKVX; > 100 µM (inactive) in the test on HOP-62. Further, the GI50 in the test with IGROV-1 is 21.1 µM (inactive); with K562 it was 31.8 µM (inactive); in the test with KM12 it was 30.5 µM (inactive); with Malme-3M, 7.91 µM (inactive); in the test with NCI/ADR-RES, > 100 µM (inactive); in the test with OVCAR-4 it was > 100 µM (inactive). Moreover, the GI50 with OVCAR-8 was > 100 µM (inactive); in the test on SF-295 it was 90.8 µM (inactive); with SN12C it was > 100 µM (inactive); in the test with T47D it was > 100 µM (inactive); in the test on UACC-62, 83.6 µM (inactive); in the test on UO-31 it was > 100 µM (inactive).
Regarding `COC(=O)C1(C)C=CC(=O)C2(C)C1C(O)C1OC3CC(c4ccoc4)C(C)=C3C1(C)C2CC(=O)O` (stereo unspecified), the GI50 with 786-0, in the test with A549, in the test on CCRF-CEM, in the test on COLO 205, in the test on EKVX and in the test on IGROV-1 was > 100 µM (inactive) in each case. Besides, the GI50 in the test on KM12, with Malme-3M, in the test on NCI-H460, in the test on NCI/ADR-RES, with OVCAR-4 and in the test with OVCAR-8 was > 100 µM (inactive) throughout. Further, the GI50 in the test on SF-295, with SN12C, with T47D, with UACC-62 and in the test on UO-31 was > 100 µM (inactive) each time.

For orientation: GI50 means the concentration giving 50% growth inhibition.

The values above are taken from ChEMBL document CHEMBL1201862, “PubChem BioAssay data set” (2004).
